Tests used:
MCF7 = assay: Cytotoxic effect on human MCF-7 breast cancer cell line as percentage growth at 10e-4 M; format: functional
NCI-H460 = assay: Cytotoxic effect on human NCI-H460 lung cancer cell line as percentage growth after inoculation at 10e-4 M; format: functional
SF-268 = assay: Cytotoxic effect on human SF-268 glioma cancer cell line as percentage growth after inoculation at 10e-4 M; format: functional
[1] = molecular target: Cyclin-dependent kinase 1/cyclin B (Homo sapiens, UniProt P06493); assay: Inhibition of Cyclin-dependent kinase 1-cyclin B; format: protein-complex assay
[2] = tested on: Panel colon (Carcinoma cell lines); assay: Inhibition of proliferation in NCI human colon tumor cell lines; format: functional
[3] = tested on: Panel breast (Carcinoma cell lines); assay: Cytostatic effect on human breast tumor cell lines; format: functional
[4] = Cytotoxic effect on 60 human tumor cell line panel, MG-MID represents mean value; format: functional
[5] = tested on: Panel prostate (Carcinoma cell lines); assay: Inhibition of proliferation in NCI human prostate tumor cell lines; format: functional
[6] = tested on: Panel melanoma (Carcinoma cell lines); assay: Cytostatic effect on human melanoma tumor cell lines; format: functional
[7] = tested on: Panel leukemia (Carcinoma cell lines); assay: Cytostatic effect on human leukemia tumor cell lines; format: functional
[8] = tested on: Panel melanoma (Carcinoma cell lines); assay: Inhibition of proliferation in NCI human melanoma tumor cell lines; format: functional
[9] = tested on: Panel renal (Carcinoma cell lines); assay: Inhibition of proliferation in NCI human renal tumor cell lines; format: functional
[10] = tested on: Panel renal (Carcinoma cell lines); assay: Cytostatic effect on human renal tumor cell lines; format: functional
[11] = Inhibition of proliferation in NCI 60 human tumor cell line panel, MG-MID represents mean value; format: functional
[12] = tested on: Panel renal (Carcinoma cell lines); assay: Cytotoxic effect on human renal tumor cell lines; format: functional
[13] = tested on: Panel CNS (Carcinoma cell lines); assay: Cytostatic effect on human CNS tumor cell lines; format: functional
NSCLC [14] = assay: Cytostatic effect on human non-small cell lung carcinoma tumor cell lines; format: functional
[15] = tested on: Panel prostate (Carcinoma cell lines); assay: Cytostatic effect on human prostate tumor cell lines; format: functional
[16] = tested on: Panel leukemia (Carcinoma cell lines); assay: Cytotoxic effect on human leukemia tumor cell lines; format: functional
[17] = tested on: Panel breast (Carcinoma cell lines); assay: Inhibition of proliferation in NCI human breast tumor cell lines; format: functional
[18] = tested on: Panel CNS (Carcinoma cell lines); assay: Cytotoxic effect on human CNS tumor cell lines; format: functional
[19] = tested on: Panel ovarian (Carcinoma cell lines); assay: Inhibition of proliferation in NCI human ovarian tumor cell lines; format: functional
[20] = tested on: Panel leukemia (Carcinoma cell lines); assay: Inhibition of proliferation in NCI human leukemia tumor cell lines; format: functional
[21] = tested on: Panel colon (Carcinoma cell lines); assay: Cytostatic effect on human colon tumor cell lines; format: functional
NSCLC [22] = assay: Inhibition of proliferation in NCI human non-small cell lung tumor cell lines; format: functional
[23] = tested on: Panel ovarian (Carcinoma cell lines); assay: Cytostatic effect on human ovarian tumor cell lines; format: functional
[24] = tested on: Panel prostate (Carcinoma cell lines); assay: Cytotoxic effect on human prostate tumor cell lines; format: functional
[25] = tested on: Panel colon (Carcinoma cell lines); assay: Cytotoxic effect on human colon tumor cell lines; format: functional
[26] = tested on: Panel melanoma (Carcinoma cell lines); assay: Cytotoxic effect on human melanoma tumor cell lines; format: functional
[27] = tested on: Panel ovarian (Carcinoma cell lines); assay: Cytotoxic effect on human ovarian tumor cell lines; format: functional
[28] = Cytostatic effect on 60 human tumor cell line panel, MG-MID represents mean value; format: functional
[29] = tested on: Panel CNS (Carcinoma cell lines); assay: Inhibition of proliferation in NCI human CNS tumor cell lines; format: functional
[30] = tested on: Panel breast (Carcinoma cell lines); assay: Cytotoxic effect on human breast tumor cell lines; format: functional

Row | SMILES | Growth (MCF7) | Growth (NCI-H460) | Growth (SF-268) | GI50 [2] | logTGI [3] | LC50 [4] | GI50 [5] | logTGI [7] | GI50 [8] | GI50 [9] | logTGI [10] | GI50 [11] | LC50 [12] | logTGI [13] | logTGI (NSCLC [14]) | logTGI [15] | LC50 [16] | GI50 [17] | LC50 [18] | GI50 [19] | also measured
1 | COc1cc2c(cc1C)NC(=O)/C2=C/c1c(Cl)n(-c2ccccc2)c2ccccc12 | 8% | 5% | 51% |  |  |  |  |  |  |  |  |  |  |  |  |  |  |  |  |  | 
2 | COc1cc2c(cc1C)NC(=O)/C2=C/c1c(Cl)[nH]c2ccccc12 | -35% | -35% | -48% |  |  |  |  |  |  |  |  |  |  |  |  |  |  |  |  |  | IC50 [1]: 20 µM
3 | COc1cc2c(/C=C3/C(=O)Nc4ccccc43)c(Cl)[nH]c2cc1C | -54% | -39% | -30% | 79.4 nM | -5.3 log M | -4.3 | 126 nM | -4.7 log M | 126 nM | 200 nM | -4.7 log M | 100 nM | -4.3 | -5.6 log M | -4.7 log M | -4.8 log M | -4.1 | 100 nM | -4.4 | 79.4 nM | logTGI [6]: -5 log M; GI50 [20]: 63.1 nM; logTGI [21]: -5.1 log M; GI50 (NSCLC [22]): 126 nM; logTGI [23]: -5.2 log M; LC50 [24]: -4.4; LC50 [25]: -4.6; LC50 [26]: -4.6; LC50 [27]: -4.4; logTGI [28]: -5 log M; GI50 [29]: 79.4 nM
4 | COc1cc2c(cc1C)NC(=O)/C2=C/c1c(Cl)[nH]c2cc(C)c(OC)cc12 | -51% | -63% | -67% | 3980 nM | -4.7 log M | -4.3 | 1260 nM | -4.8 log M | 3160 nM | 2510 nM | -4.8 log M | 2000 nM | -4.3 | -5.3 log M | -4.8 log M | -4.9 log M | -4.2 | 2510 nM | -4.6 | 2000 nM | TGI [6]: -4.8 log10 M; LC50 [30]: -4.1; GI50 [20]: 501 nM; logTGI [21]: -4.7 log M; GI50 (NSCLC [22]): 3160 nM; TGI [23]: -4.9 log10 M; LC50 [24]: -4.4; LC50 [25]: -4.2; LC50 [26]: -4.3; LC50 [27]: -4.4; logTGI [28]: -4.8 log M; GI50 [29]: 631 nM
5 | COc1cc2c(cc1C)NC(=O)/C2=C/c1c(Cl)n(C)c2ccccc12 | 3% | -50% | -14% |  |  |  |  |  |  |  |  |  |  |  |  |  |  |  |  |  | 
6 | COc1ccc2c(c1)/C(=C\c1c(Cl)n(-c3ccccc3)c3ccccc13)C(=O)N2 | -6% | -28% | 12% |  |  |  |  |  |  |  |  |  |  |  |  |  |  |  |  |  | 
7 | COc1ccc2[nH]c(Cl)c(/C=C3/C(=O)Nc4cc(C)c(OC)cc43)c2c1 | -23% | -23% | -54% |  |  |  |  |  |  |  |  |  |  |  |  |  |  |  |  |  | IC50 [1]: 30 µM
8 | O=C1/C(=C/c2c(Cl)[nH]c3ccccc23)c2ccccc2N1c1ccccc1 | -3% | -1% | 6% |  |  |  |  |  |  |  |  |  |  |  |  |  |  |  |  |  | 
9 | COc1cc2c(/C=C3/C(=O)N(c4ccccc4)c4ccccc43)c(Cl)[nH]c2cc1C | 1% | -10% | 1% | 2510 nM | -5 log M | -4.1 | 3160 nM | -4.4 log M | 3160 nM | 3980 nM | -4.4 log M | 3160 nM | -4.1 | -4.7 log M | -4.5 log M | -4.9 log M | -4 | 2510 nM | -4.2 | 2510 nM | logTGI [6]: -4.9 log M; GI50 [20]: 2510 nM; logTGI [21]: -4.7 log M; GI50 (NSCLC [22]): 3160 nM; logTGI [23]: -4.8 log M; LC50 [24]: -4; LC50 [25]: -4.2; LC50 [26]: -4.3; LC50 [27]: -4.3; logTGI [28]: -4.7 log M; GI50 [29]: 3160 nM
10 | O=C1Nc2ccccc2/C1=C\c1c(Cl)[nH]c2ccc(O)cc12 | -69% | -82% | -34% |  |  |  |  |  |  |  |  |  |  |  |  |  |  |  |  |  | IC50 [1]: 30 µM
11 | COc1ccc2[nH]c(Cl)c(/C=C3/C(=O)N(c4ccccc4)c4ccccc43)c2c1 | 3% | 2% | 15% |  |  |  |  |  |  |  |  |  |  |  |  |  |  |  |  |  | 
12 | COc1cc2c(/C=C3/C(=O)N(C)c4ccccc43)c(Cl)[nH]c2cc1C | 4% | -18% | -1% | 316 nM | -5.1 log M | -4.1 | 398 nM | -4.6 log M | 631 nM | 2000 nM | -4.2 log M | 398 nM | -4 | -5.6 log M | -5 log M | -4.7 log M | -4 | 158 nM | -4.5 | 316 nM | logTGI [6]: -4.6 log M; GI50 [20]: 251 nM; logTGI [21]: -5 log M; GI50 (NSCLC [22]): 794 nM; logTGI [23]: -5.2 log M; LC50 [24]: -4; LC50 [25]: -4.2; LC50 [26]: -4; LC50 [27]: -4.3; logTGI [28]: -4.9 log M; GI50 [29]: 200 nM
13 | COc1ccc2c(c1)/C(=C\c1c(Cl)[nH]c3cc(C)c(OC)cc13)C(=O)N2 | -54% | -48% | -44% | 1000 nM | -5 log M | -4.3 | 1260 nM | -5.1 log M | 1000 nM | 2000 nM | -4.8 log M | 1000 nM | -4.3 | -5.2 log M | -4.8 log M | -5.1 log M | -4.2 | 1000 nM | -4.7 | 794 nM | logTGI [6]: -5 log M; GI50 [20]: 501 nM; logTGI [21]: -5 log M; GI50 (NSCLC [22]): 2510 nM; logTGI [23]: -5.3 log M; LC50 [24]: -4.4; LC50 [25]: -4.4; LC50 [26]: -4.5; LC50 [27]: -4.3; logTGI [28]: -5 log M; GI50 [29]: 794 nM
14 | O=C1Nc2ccccc2/C1=C\c1c(Cl)n(-c2ccccc2)c2ccccc12 | 8% | -16% | -17% |  |  |  |  |  |  |  |  |  |  |  |  |  |  |  |  |  | 
15 | CC[C@]1(O)C[C@H]2CN(CCc3c([nH]c4ccccc34)[C@@](C(=O)OC)(c3cc4c(cc3OC)N(C=O)[C@H]3[C@@](O)(C(=O)OC)[C@H](OC(C)=O)[C@]5(CC)C=CCN6CC[C@]43[C@@H]65)C2)C1.O=S(=O)(O)O [VINCRISTINE SULFATE] |  |  |  | 100 nM | -5.1 | -3.6 | 126 nM | -4.8 | 158 nM | 316 nM | -4.7 | 200 nM | -3.6 | -5.2 | -4.8 log M | -5.2 | -3.2 | 316 nM | -3.7 | 316 nM | logTGI [6]: -5.1 log M; LC50 [30]: -3.5; GI50 [20]: 100 nM; logTGI [21]: -5.4; GI50 (NSCLC [22]): 251 nM; logTGI [23]: -4.7; LC50 [24]: -3.5; LC50 [25]: -4.1; LC50 [26]: -3.6; LC50 [27]: -3.5; logTGI [28]: -5; GI50 [29]: 126 nM

Reference: ChEMBL document CHEMBL1135474, “Synthesis and antitumor activity of 1,5,6-substituted E-3-(2-chloro-3-indolylmethylene)-1,3-dihydroindol-2-ones” (J Med Chem, 2002)
